# Assays:
# Assay type in all cases: cell-based, mouse
# [1] = test system: cultured murine hippocampal neurons; test: evoked EPSCs and tetanus-induced potentiation in cultured neurons; conditions: for effect on EPSC amplitude (in words): evoked EPSCs, FIG. 2B
# [2] = test system: cultured hippocampal neurons from double transgenic mAPP/mPS1 mice; test: basal mEPSC frequency (spontaneous neurotransmitter release), whole cell patch clamp, mAPP/mPS1 cultures
# [3] = test system: cultured hippocampal neurons from WT mice; test: basal mEPSC frequency (spontaneous neurotransmitter release), whole cell patch clamp, WT cultures
# [4] = test system: cultured hippocampal neurons from double transgenic mAPP/mPS1 mice; test: glutamate-induced enhancement of mEPSC frequency (synaptic plasticity), mAPP/mPS1 cultures
# [5] = test system: cultured hippocampal neurons from WT mice; test: immunocytochemistry: synapsin I- and synaptophysin-immunoreactive puncta, WT cultures
# Description: Glutamate in Mg^2+-free bath solution, or normal bath solution (control) was added directly to the culture dish and washed out after approximately 1 min by exchanging the solution with phosphate-buffered saline (PBS), (pH 7.4) 2 times. The cultures were fixed starting approximately 30 min after the application of glutamate, or control solution. The cultures were incubated overnight with affinity-purified rabbit anti-synapsin I (Molecular Probes) diluted 1:200. The secondary antibody was goat anti-rabbit labeled with Rhodamin Red diluted 1:500 in 4% goat serum in PBS. Cells were mounted in Vectashield (Vector Labs) and examined by confocal microscope (Nikon D-Eclipse C1). The cells were excited using the 568 nm lines of a krypton-argon laser to image Cy3. Kalman averages of 4 scans were collected for each image. Ten neurons in each culture dish were selected at random and analyzed by an observer who was blind to the experimental treatment. Fields with roughly equal densities of neurites were chosen for analysis. Synapsin I clusters in a representative field (94×142 μm) around the neuron were quantified using a computer program NIH Image (v. 1.61). Individual clusters were identified based on having a fluorescence intensity that exceeded a threshold set above background and a diameter between 0.5 and 5 μm. For all measures, the mean result from the 10 neurons in the dish was normalized to the mean from control dishes in the same culture batch because variability between different culture batches was greater than between dishes in the same batch. FIG. 7 illustrates the effects of glutamate on the number of synapsin I-immunoreactive clusters in WT and mAPP/mPS1 cell cultures. Synapsin I-immunoreactive clusters are more numerous in glutamate-exposed than control cell WT cultures (FIGS. 7A, 7B).
# In light of the microstructural changes involving synapsin I and synaptophysin in cultures from transgenic animals, we also tested whether these changes could be induced by the exogenous application of Aβ. […] We next tested whether the number of synapsin I- and synaptophysin-immunoreactive puncta was increased after glutamate application in Aβ-treated cultures. […] These findings indicate that Aβ can produce coordinate changes in the distribution and/or expression of presynaptic proteins.
# Aβ preparation: Oligomeric Aβ42 was prepared as previously described (Stine et al., 2003). Briefly, the lyophilized peptide (American Peptide) was re-suspended in 100% 1,1,1,3,3,3-hexafluoro-2-propanol (HFIP; Sigma). The solution was aliquoted and the HFIP was allowed to evaporate in the fume hood. The resulting clear peptide films were dried under vacuum in a SpeedVac and stored at −20° C. Twenty-four hours prior to use, the aliquots were added dimethylsulfoxide (DMSO) (Sigma) and sonicated for 10 minutes. Oligomeric Aβ42 was obtained by diluting Aβ42-DMSO into cell culture media, vortexed for 30 seconds and incubated at 4° C. for 24 hours until the use. To induce plasticity 200 μM glutamate in a Mg^2+-free solution was added for ˜30 sec.
# [6] = test system: cultured hippocampal neurons from WT mice; test: glutamate-induced increase of mEPSC frequency, WT cultures
# [7] = test system: cultured hippocampal neurons from WT mice; test: FM 1-43 vesicle cycling: number of active presynaptic boutons, WT cultures
# Source text: Cationic styrylpyridinium dye FM 1-43 has become an established tool for identifying actively firing neurons and for investigating the mechanisms of activity-dependent vesicle cycling in widely different species. These water soluble dyes, which are non-toxic to cells virtually nonfluorescent in aqueous medium, become internalized within recycled synaptic vesicles and the nerve terminals become brightly stained. The amount of FM 1-43 taken up per vesicle by endocytosis equals the amount of dye released upon exocytosis.
# One of the methods to induce exocytosis/endocytosis in the neuronal culture is by perfusion of the hyperkalemic solution. […] The perfusion solution is then changed back to normal bath solution for 10 minutes to wash off the dye from the external medium. ADVASEP-7 (1 mM, CyDex, Inc., Overland Park, Kans.), an anionic cyclodextrin complexing agent is introduced for 60 seconds in the washing bath solution at 1 and 6 minutes of washing for enhanced removal of the dye from the external medium (FIG. 6A). After 10 min wash period, which is sufficient for the complete recycling and repriming of the dye-stained population of synaptic vesicles, an image was then taken to record the loading of FM 1-43 in the synaptic boutons. The culture is then exposed to multiple 15 seconds application of hyperkalemic bath solution (without FM 1-43) to evoke repeated cycles of exocytosis, which facilitate release of the dye from the vesicles. An image is taken after 30 minutes of repeated cycles of exocytosis and washing with normal bath solution. The difference between the images before and after multiple exposures to hyperkalemic solution gives the measure of FM 1-43 stained vesicles.
# To study glutamate-induced presynaptic plasticity changes, the culture is exposed to glutamate (200 μM) in Mg^2+ free bath solution for 30 seconds and then washed out in approximately 1 minute. After 30 minutes of glutamate exposure, the staining and destaining procedure is repeated. NMDA receptor antagonist, d-AP5 (40 μM) and non-NMDA receptor antagonist, CNQX (20 μM) are included in the hyperkalemic solution to block possible recurrent excitation and induction of activity-dependent plasticity. All images were acquired using Nikon D-Eclipse C1 confocal microscope. Cultures were viewed with 60×/1.2 nA water immersion objective. An investigator blinded to experimental conditions obtained quantitative data using NIH Image (v. 1.61). For each image, the intensity of individual puncta and total number of puncta was assessed. FIG. 6B illustrates exemplary cycling vesicles before and after glutamate exposure in cell cultures from wild type (WT) and mAPP/mPS1 littermates. A brief application of glutamate produces enhancement of cycling vesicles in WT but not mAPP/mPS1 cell cultures (FIG. 6C).
# Another finding on cell cultures from transgenic mouse models of Alzheimer's disease is represented by the increase in basal number of functional presynaptic release sites as well as the lack of the glutamate-induced increase in number of functional presynaptic release sites. These tests were performed using FM 1-43. Therefore, we also tested whether these phenomena occurred in non transgenic cultures following exposure to exogenous oligomeric Aβ. […] Brief application (˜30 sec) of 200 μM glutamate in Mg^2+ free medium caused a significant increase in number of active boutons in cultures from vehicle-treated WT animals (269.70±33.12%, n=6, p<0.001, one way ANOVA) ) (FIG. 12B). […]
# [8] = Aβ42-treated cultures fixed 30 minutes after 200 μM glutamate application
# [9] = WT cultures, 200 pM oligomeric Aβ42 for 24 hours vs vehicle-treated
compound,measurement,setting,value
N#Cc1cc2[nH]c(=O)c(=O)[nH]c2cc1[N+](=O)[O-] [CNQX],effect on EPSC amplitude (in words),[1],blocks the remaining part of the EPSC
N[C@@H](CCCP(=O)(O)O)C(=O)O [APV],effect on potentiation of EPSC by high frequency stimulation (in words),"[1]; 100 Hz tetani, extracellular application, FIG. 2C",blocked
same,effect on EPSC amplitude (in words),[1],reduces the amplitude of the EPSCs
CC(C)C[C@H](NC(=O)[C@H]1O[C@@H]1C(=O)O)C(=O)NCCCCN=C(N)N [E64],basal mEPSC frequency,[2]; mAPP/mPS1 cultures treated with E64 1 μM added daily to culture medium,435 events/minute
same,effect on basal mEPSC frequency (in words),"[2]; mAPP/mPS1 cultures, E64 for 3 to 4 days, FIG. 4",re-established normal mEPSC frequency
same,basal mEPSC frequency,[3]; WT cultures treated with E64 1 μM added daily,332 events/minute
same,mEPSC frequency after glutamate (synaptic plasticity),"[4]; mAPP/mPS1 cultures treated with E64, 45 minutes after application of glutamate, n=6",346.44±41%
same,effect on synaptic plasticity (in words),"[4]; mAPP/mPS1 cultures, glutamate-induced mEPSC enhancement, FIG. 5",re-established normal synaptic plasticity
"oligomeric Aβ42: lyophilized β-amyloid 42 peptide (American Peptide) treated with HFIP and DMSO, then diluted into culture media to form oligomers",number of synapsin I-immunoreactive puncta after glutamate,[5]; [8],111.55±8.97%
same,number of synaptophysin-immunoreactive puncta after glutamate,[5]; [8],115.48±5.76%
same,effect on basal number of synapsin I- and synaptophysin-immunoreactive puncta (in words),[5]; FIG. 13A,increases
same,effect on glutamate-induced increase in synapsin I- and synaptophysin-immunoreactive puncta (in words),[5]; FIG. 13B,blocks
same,basal number of synapsin I immunoreactive puncta,[5]; [9],1155.53±6.78 % of control
same,basal number of synaptophysin immunoreactive puncta,[5]; [9],146.13±6.15%
same,effect on glutamate-induced mEPSC frequency increase (in words),[6]; FIG. 11B,blocks
same,mEPSC frequency after glutamate,"[6]; WT cultures, 200 pM Aβ42 for 24 hours, 45 min after 200 μM glutamate, n=10",104.43±3.05 % of pre values
same,basal mEPSC frequency with vehicle added instead of glutamate,"[6]; WT cultures, Aβ-treated, vehicle instead of glutamate, n=8",112.00±11.34 % of pre values
same,mEPSC amplitude after glutamate treatment (in words),[6]; cultures treated with Aβ,did not produce any change
same,effect on basal frequency of spontaneous release of neurotransmitter (in words),[3]; FIG. 11A,increases
same,mEPSC amplitude vs vehicle-treated cultures (in words),"[3]; WT cultures, 200 pM oligomeric Aβ42 for 24 hours",did not find any difference
same,basal frequency of spontaneous release of neurotransmitter,"[3]; WT cultures, 200 pM oligomeric Aβ42 for 24 hours, n=8",671.46 ± 48.28 min⁻¹
same,mean fluorescence intensity of the labeled boutons (in words),[7]; Aβ-treated cultures,did not find any change
same,number of active boutons after glutamate,"[7]; Aβ-treated cultures, ~30 sec 200 μM glutamate in Mg2+ free medium, n=8",86.80±4.6 % increase
same,effect on basal number of active presynaptic boutons (in words),[7]; FIG. 12A,increases
same,effect on glutamate-induced increase in the number of active boutons (in words),[7]; FIG. 12B,blocks
same,basal number of active boutons,"[7]; WT cultures treated for 24 hrs with Aβ42, n=15",38.15±3.6 boutons/unit length of neurite
